Three compounds from publication PMC6175828, “C16-ceramide is a natural regulatory ligand of p53 in cellular stress response” (Nature Communications, 2018) can be followed below.

Assay [1] has as its target T1, p53 (Homo sapiens, UniProt P04637). As to the kind of experiment: PVDF membrane-binding assay with purified p53; p53 immunoprecipitation with LC-MS/MS of bound ceramide. More on the design: gene TP53; purified recombinant p53; endogenous p53 pulled down from A549 cells.
In assay [2] the target is T1, p53. The experiment in a line: UV photo-crosslinking, MALDI-TOF MS and LC-MS/MS site mapping; thermal shift (Tm […] to […] °C). Set-up: gene TP53; DBD, residues 100–300. It is filed as binding.
Assay [3] addresses T2, p53 (Homo sapiens, UniProt P04637, S241A).
T2 construct: gene TP53; full-length
As to the kind of experiment: binding test of p53 mutant (Supplementary Figure […]), qualitative.

For assay [4], the target named is T3, p53 (Homo sapiens, UniProt P04637, R175H).
T3 construct: gene TP53
As to the kind of experiment: binding test of p53 mutant (Supplementary Figure 4a), qualitative.

For assay [5], the target named is T4, p53 (Homo sapiens, UniProt P04637, S240E).
T4 construct: gene TP53; full-length
The experiment in a line: binding test of p53 mutant (Supplementary Figure […]), qualitative.

In assay [6] the target is T1, p53. As to the kind of experiment: intrinsic tyrosine fluorescence quenching titration of purified p53 DBD; PVDF membrane-binding assay. Set-up: gene TP53.

Consider `CCCCCCCCCCCCC/C=C/[C@@H](O)[C@H](CO)NC(=O)CCCCCCCCCCCCCCC` [C16-ceramide, N-(hexadecanoyl)-sphing-4-enine], for which the “PVDF membrane-binding assay with purified p53; p53 immunoprecipitation with LC-M” value on p53 [1] is given as “these experiments demonstrated the strong preference of p53 for C16-ceramide”.
On to `C#CCCCC1(CCCCCCCCC(=O)N[C@@H](CO)[C@H](O)/C=C/CCCCCCCCCCCCC)N=N1` [PAC, N-(9-(3-pent-4-ynyl-3-H-diazirin-3-yl)-nonanoyl)-D-erythro-sphingosine], for which the “UV photo-crosslinking, MALDI-TOF MS and LC-MS/MS site mapping; thermal shift (Tm)” value on p53 [2] is “LC-MS/MS data revealed two ceramide-modified residues, Ser240 and Ser241 (Fig. 3b), in the PAC-modified sample only”.
For `CCCCCCCCCCCCC/C=C/[C@@H](O)[C@H](CO)NC(=O)CCCCCCCCCCCCCCC[n+]1ccccc1` [PC16, D-erythro-2-N-[16′-(1′′-pyridinium)-hexadecanoyl]-sphingosine bromide], the “binding test of p53 mutant (Supplementary Figure 4), qualitative” value on p53 [3] and on p53 [5] was “substitutions with aa having shorter side chains (S241A or S240E) did not affect the binding” in each case. Moreover, the “binding test of p53 mutant (Supplementary Figure 4a), qualitative” value at p53 [4] is listed as “R175H, did not affect the binding of PC16 to p53 (Supplementary Figure 4a)”. The Kd – broadly, the concentration at which binding is half-saturated – on p53 [6] is around 60 nM.
